Reference: patent US12516346B2, “Intelligent genetic breeding and seed production system for crop cross breeding and hybrid seed production, and application thereof” (Hainan Bolian Technology Co., Ltd., priority 2020, dated 2026)

Tests used:
Assay type in all cases: in vivo, rice
[1] = tested on: seeds of GAT key strains and ZH11; assay: Tissue culture germination screening on bispyribac-sodium (BS) medium; details: 1/2MS + 3 μm bispyribac-sodium
Protocol: In order to identify the working efficiency of screening marker elements in the GAT T1 generation, tissue culture germination was used to screen the T1 generation of key strains and candidate strains.
Therefore, ½MS medium+3 μm bispyribac-sodium was prepared for screening the key strains and the candidate strains of GAT, and the germination results were shown in Table 2.

[2] = tested on: GAT T0 generation transformants and wild-type control ZH11 seedlings; assay: Bispyribac-sodium resistance phenotype, spraying of T0 seedlings
Protocol: In order to test the working efficiency of screening marker elements in the GAT system, a 600 mg/L bispyribac-sodium solution was prepared with 10% bispyribac-sodium (Nominee, Japan), and 563 GATT0 generation obtained in example 2 and wild-type control ZH11 3 to 5 leaf stage seedlings were sprayed. After spraying, continuous observation was carried out.

[3] = tested on: seeds of GAT strains, hybrids with sterile line 1907, ZH11, 9311, MH63; assay: Detection of the escape rate of GAT pollen: seed screening on BS medium; details: 21 days; for Survival number / Survival rate: 1/2MS + 3uM BS
Description: To further detect whether its pollen escapes, in this example, the rice material of common sterile line was pollinated through the strains of the excellent initial maintainer line of GAT, and it was checked whether the hybrid seed has the resistance to bispyribac-sodium (the method is the same as that in Example 5). […] GAT strains (23-2, 88-4) were selected as male parents to pollinate female sterile line 1907, and 221 and 373 hybrid seeds were obtained respectively.

[4] = 563 GAT T0 transformants, 600 mg/L spray, 14th day
[5] = hybrid 1907 × 23-2(T1), total number 211
[6] = hybrid 1907×88-4(T1), total number 363
[7] = strain 23-2(T2), total number 200
[8] = strain 88-4(T2), total number 200

## COc1cc(OC)nc(Oc2cccc(Oc3nc(OC)cc(OC)n3)c2C(=O)O)n1 [bispyribac-sodium]
[1]; strain 4, 45 seeds
  Germination: 24
  Non-germination: 21
[1]; strain 7, 29 seeds
  Germination: 11
  Non-germination: 18
[1]; strain 11-1, 58 seeds
  Germination: 26
  Non-germination: 32
[1]; strain 20, 40 seeds
  Germination: 10
  Non-germination: 30
[1]; strain 23-2, 30 seeds
  Germination: 19
  Non-germination: 11
[1]; strain 23, 110 seeds
  Germination: 61
  Non-germination: 49
[1]; strain 28, 59 seeds
  Germination: 16
  Non-germination: 43
[1]; strain 53-3, 19 seeds
  Germination: 7
  Non-germination: 12
[1]; strain 77-2, 46 seeds
  Germination: 29
  Non-germination: 17
[1]; strain 88-4, 62 seeds
  Germination: 30
  Non-germination: 32
[1]; strain 93-2, 34 seeds
  Germination: 15
  Non-germination: 19
[1]; strain 95-2, 35 seeds
  Germination: 10
  Non-germination: 25
[1]; strain 174-3, 15.2 seeds
  Germination: 12
  Non-germination: 3.2
[1]; strain 175-4
  Germination: 14
[1]; strain 175-4, 27.3 seeds
  Non-germination: 13.3
[1]; strain ZH11 (CK), 40 seeds
  Germination: 0
  Non-germination: 40
[2]; [4]
  number of growth inhibited strains (mediumly resistant): 163 strains
  number of irreversible death or near-death strains (non-resistant or low resistant): 216 strains
  number of normal growth strains (highly resistant): 184 strains
[2]; GAT T0 transformants, 600 mg/L spray
  probability of GAT transformants showing normal growth, highly resistant: 32.68%
[2]; control ZH11, 600 mg/L bispyribac-sodium spray, 3 to 5 leaf stage, third day
  appearance of leaves after spraying: withered and yellow
[2]; control ZH11, 600 mg/L bispyribac-sodium spray, 14th day
  appearance after spraying: completely died
[2]; control ZH11, 600 mg/L bispyribac-sodium spray, seventh day
  appearance after spraying: withered and yellow and was dying
[3]; [5]
  Survival number: 0
  Survival rate: 0.00%
[3]; [6]
  Survival number: 0
  Survival rate: 0.00%
[3]; hybrid seeds 1907 x GAT strains 23-2, 88-4, 1/2MS+3 uM BS
  germination rate: 0%
[3]; [7]
  Survival number: 95
  Survival rate: 47.50%
[3]; [8]
  Survival number: 83
  Survival rate: 41.50%
[3]; strain 9311, total number 200
  Survival number: 0
  Survival rate: 0.00%
[3]; strain MH63, total number 200
  Survival number: 0
  Survival rate: 0.00%
[3]; strain ZH11, total number 200
  Survival number: 0
  Survival rate: 0.00%
